In patent US10519452B2, “Antiviral agent comprising RNA oligonucleotide” (priority 2015, dated 2019):
Where two headings read alike, the source gives them in different places. Oligonucleotides are written 5' to 3', each unit as a sugar letter and its base; * is a phosphorothioate linkage, no mark a phosphodiester; rarer units and linkages stand in square brackets, end groups in braces. Plain capitals give the bases only. {PPP} = triphosphate group; r = 2'-OH (RNA)

Experiments:
Format in all cases: cell-based
[1] = tested on: influenza A virus/Puerto Rico/8/34(H1N1)(PR8)
[2] = tested on: ISG56; details: for change in ISG56 expression: same method as Experimental Example 1, real-time PCR vs GAPDH, FIGS. 5 to 8
[3] = tested on: influenza A virus/Puerto Rico/8/34(H1N1)(PR8); remark: listed apart in the source
[4] = tested on: interferon-β; details: HEK293T cells, 1 μM RNA oligonucleotide with lipofectamine LTX, real-time PCR vs GAPDH; FIG. 3 and FIG. 4
[5] = A549 cells infected with influenza A virus, FIG. 10 and FIG. 11

Molecule | change in ISG56 expression [2] | change in interferon-β expression [4] | other results
5′-OH-Bend-GC-8 bp-PS: 5′-OH-Bend-GC-8 bp RNA oligonucleotide with phosphodiester bonds substituted with phosphorothioate bonds (rG*rG*rU*rA*rG*rA*rC*rG*rU*rU*rC*rG*rC*rG*rU*rU*rU*rG*rC*rC; 5'-hydroxy, hairpin) | increased the ISG56 expression to a significant level | – | antiviral activity against influenza A virus (Western blot of viral NP and NS1) [1]: showed antiviral activity against influenza A virus in a concentration-dependent manner; antiviral activity against influenza A virus (plaque assay, titer of viruses) [3]: showed antiviral activity against influenza A virus in a concentration-dependent manner
5′-PPP-iav: RNA oligonucleotide composed of the base sequence of SEQ ID NO:6 with a triphosphate group at the 5′-end (GAGUAGAAACAAGGCUUCGGCCUGCUUUUGCUC; RNA, 5' {PPP}, backbone not given here) | increase the expression of interferon-β and ISG56 | increase the expression of interferon-β and ISG56 | –
5′-OH-16mer-Double Bend: Double strands of two base sequences of SEQ ID NO:18, each with a 5′-hydroxy group; palindromic, two helical bend structures (chain 1 GGUAGACGCGUUUGCC; chain 2 GGUAGACGCGUUUGCC; sugars by position and backbone not given here; 5'-hydroxy ends, palindromic duplex) | increased the ISG56 expression to a significant level | – | –
5′-OH-Bend-GC: RNA oligonucleotide composed of the base sequence of SEQ ID NO:8 with a hydroxy group at the 5′-end (GGUAGACGCGCGCGUUCGCGCGCGCGUUUGCC; RNA, backbone not given here; 5'-hydroxy, hairpin) | – | increased the interferon-β expression to a significant level | –
5′-OH-8 bp-Bend-GC-Minimum: Minimum-length double-stranded RNA of SEQ ID NO:3 and SEQ ID NO:4, each with a 5′-hydroxy group (chain 1 GGUAGACG; chain 2 CGUUUGCC; RNA, backbone not given here; 5'-hydroxy ends) | increased the ISG56 expression to a significant level | – | –
5′-OH-Bend-GC-8 bp: Shorter hairpin RNA composed of the base sequence of SEQ ID NO:10 with a hydroxy group at the 5′-end (GGUAGACGUUCGCGUUUGCC; RNA, phosphodiester; 5'-hydroxy, hairpin) | – | increased the interferon-β expression to a significant level | –
5′-OH-iav: RNA oligonucleotide composed of the base sequence of SEQ ID NO:6 with a hydroxy group at the 5′-end (GAGUAGAAACAAGGCUUCGGCCUGCUUUUGCUC; RNA, backbone not given here; 5'-hydroxy) | increase the expression of interferon-β and ISG56 | increase the expression of interferon-β and ISG56 | –
5′-OH-Long_Bend: Long-length RNA oligonucleotide composed of the base sequence of SEQ ID NO:19 with a hydroxy group at the 5′-end (nucleic acid, RNA, phosphodiester; 5'-hydroxy) GGUAGACGAAACCAGAUAAAAAAAAAAAAAAAAAAAAAAAAAAUAAUUUUUUUUUUUUUUUUUUUUUUUUUUAUCUGGUUUCGUUUGCC | increased the ISG56 expression to a significant level | – | concentration at which expression of viral protein was significantly inhibited (Western blot) [1, 5]: ≥ 10 nM; antiviral effect at low concentration compared with positive control (Western blot) ([1]; A549 cells, 10 nM, positive control 0.1 μg/ml poly I:C, FIG. 9A): excellent effect corresponding to the positive control group (poly I:C); antiviral activity against influenza A virus (Western blot of viral NP and NS1) ([1]; A549 cells, 10, 30 or 100 nM, transfected 24 h before infection at 0.1 MOI, FIG. 9A): showed antiviral activity against influenza A virus in a concentration-dependent manner; antiviral effect at low concentration compared with positive control (plaque assay) ([3]; A549 cells, 10 nM, positive control 0.1 μg/ml poly I:C, FIG. 9B): excellent effect corresponding to the positive control group (poly I:C); antiviral activity against influenza A virus (plaque assay, titer of viruses) ([3]; A549 cells, 10, 30 or 100 nM, titer on MDCK cells, FIG. 9B): showed antiviral activity against influenza A virus in a concentration-dependent manner
5′-OH-Long_Bend-BPS: 5′-OH-Long_Bend RNA oligonucleotide with part of phosphodiester bonds substituted with phosphorothioate bonds (nucleic acid, RNA, backbone not given here; 5'-hydroxy, partial phosphorothioate) GGUAGACGAAACCAGAUAAAAAAAAAAAAAAAAAAAAAAAAAAUAAUUUUUUUUUUUUUUUUUUUUUUUUUUAUCUGGUUUCGUUUGCC | increased the ISG56 expression to a significant level | – | concentration at which expression of viral protein was significantly inhibited (Western blot) [1]: ≥ 1 nM; increase in the ISG56 expression as compared to 5′-OH-Bend-GC-8 bp ([2]; FIG. 8): about 7 fold
5′-OH-Long_Bend Short: RNA oligonucleotide composed of the base sequence of SEQ ID NO:20 with a hydroxy group at the 5′-end (nucleic acid, RNA, backbone not given here; 5'-hydroxy) GGUAGACGAAAAAAAAAAAAAAAAAAAAAAAAAAUAAUUUUUUUUUUUUUUUUUUUUUUUUUUCGUUUGCC | – | – | concentration at which expression of viral protein was significantly inhibited (Western blot) [1, 5]: 100 nM
5′-OH-Int-NS1: RNA oligonucleotide composed of the base sequence of SEQ ID NO:7 with a hydroxy group at the 5′-end (nucleic acid, RNA, backbone not given here; 5'-hydroxy) AGUAGAAACAAGGGUGUUUUUUAUUAUUAAAUAAGCUGAAGUGUUUGGAUCCAUUAUGUCUUUGUCACCCUGCUUUUGCU | – | increased the interferon-β expression to a significant level | –
